Data published in article PMC9143943, “Novel Tyrosine Kinase Inhibitors to Target Chronic Myeloid Leukemia” (Molecules, 2022).
Entries after “also recorded” stand apart in the source; their conditions may differ. Where two headings read alike, the source gives them in different places.

Key:
HO-1 = target: T1, HO-1 (Rattus norvegicus, UniProt P06762); assay: HO-1 enzymatic activity in microsomal fraction of rat spleen (bilirubin formation); type: biochemical
T1 construct: This microsomal preparation represents the most native (i.e., closest to in vivo) form of HO-1; from tissue; host or cells: rat spleen microsomes (male Sprague-Dawley rats)
T1 sequence (P06762 1-289): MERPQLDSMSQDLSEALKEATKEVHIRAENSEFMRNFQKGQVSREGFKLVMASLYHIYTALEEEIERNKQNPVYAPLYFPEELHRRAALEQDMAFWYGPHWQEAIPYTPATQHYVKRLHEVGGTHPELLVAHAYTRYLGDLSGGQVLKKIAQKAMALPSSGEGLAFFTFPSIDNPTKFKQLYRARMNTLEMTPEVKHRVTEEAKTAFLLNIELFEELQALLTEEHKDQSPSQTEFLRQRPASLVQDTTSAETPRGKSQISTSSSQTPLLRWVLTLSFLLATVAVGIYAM
Procedure: HO-1 activity was measured in microsomal fractions of rat spleen obtained as described in the experimental section. The activity was determined by measuring the bilirubin formation using the difference in absorbance at 464–530 nm. HO-1 inhibitors LS/0 and LS1/71 were used as reference compounds. […] Nevertheless, some observed differences in the results among the tested compounds allow us to discuss SAR as follows. HO-1 inhibitory activity mainly depends on the position of the oxybutylimidazole moiety and only to a lesser extent on the R substituent on the benzamide ring.
Since HO-1 protein is abundant in the rat spleen as well documented, rat spleen microsomal fraction prepared by differential centrifugation was used as source of the HO-1 protein. This microsomal preparation represents the most native (i.e., closest to in vivo) form of HO-1. Spleen microsomal fractions were obtained according to Ryter et al.. The experiments reported in the present paper complied with current Italian law and met the guidelines of the Institutional Animal Care and Use Committee of Ministry of Health (Directorate General for Animal Health and Veterinary Medicines, Italy) “Dosing of enzymatic activities in rat microsomes” (2018–2022), project code 02769.N.VLY. Male Sprague–Dawley albino rats (150 g body weight and age 45 d) used in our experimental conditions to obtain spleen microsomal fraction had free access to water and were kept at room temperature with a natural photo-period (12 h light–12 h dark cycle). To obtain a homogenate (15%, w/v) of spleens, each rat was sacrificed, and its spleen was excised and weighed. Spleens pooled from five rats were homogenized in 50 mM Tris buffer, pH 7.4, containing 0.25 M sucrose, using a Potter–Elvehjem homogenizing system with a Teflon pestle. The microsomal fraction of rat spleen homogenate was obtained by differential centrifugation: first centrifugation at 10,000× g for 20 min at 4 °C and a second centrifugation of the supernatant at 100,000× g for 60 min at 4 °C. The 100,000× g pellet (microsomes) was resuspended in 100 mM potassium phosphate buffer, pH 7.8, containing 2 mM MgCl2. The rat spleen fraction was divided into aliquots and stored at −80 °C for up to 2 months, and then its protein concentration was measured.
Biliverdin reductase was obtained by using rat liver cytosol. Three volumes of a solution 1.15% KCl w/v and Tris buffer 20 mM, pH 7.8, were used to homogenize on ice liver tissue. The 10,000× g supernatant was obtained by differential centrifugation: first centrifugation at 10,000× g for 20 min at 4 °C and a second centrifugation at […] at 4 °C to sediment the microsomes. The 10,000× g supernatant was stored in small amounts at −80 °C, and then its protein concentration was measured.
The HO-1 activity was determined by measuring the bilirubin formation using the difference in absorbance at 464–530 nm, as described by Ryter et al.. A final volume of 500 μL of incubation mixtures contained 20 mM Tris–HCl, pH 7.4, (1 mg/mL) microsomal extract, 0.5–2 mg/mL biliverdin reductase, 1 mM NADPH, 2 mM glucose 6-phosphate (G6P), 1 U G6P dehydrogenase, 25 μM hemin, and 10 μL of DMSO (or the same volume of DMSO solution of test compounds to a final concentration of 100, 10, and 1 μM). Enzymatic reactions were carried out in the dark for 60 min at 37 °C in a circulating water bath. The reactions were stopped by the addition of 500 μL of chloroform. After recovering the chloroform phase, the amount of bilirubin formed was measured with a double-beam spectrophotometer as OD464–530 nm (extinction coefficient, 40 mM/cm^−1 for bilirubin). The enzymatic activity was defined as Units (one Unit is the amount of enzyme catalyzing the formation of 1 nmol of bilirubin/mg protein/h).

BCR-ABL kinase = BCR-ABL kinase (Homo sapiens, UniProt P00519); assay: FRET-based Z'-Lyte kinase assay
Procedure: Novel compounds were tested to investigate their ability to inhibit both BCR-ABL TK and HO-1.

K562-S cells = assay: In vitro cytotoxicity, NIL-sensitive K562 cells (trypan blue / XTT); type: cell-based; details: 0.5 and 5 μM, 48 h
Procedure: K562 cells (CCL-243 ATCC) were cultured in RPMI 1640 (L0500, Biowest, Riverside, MO, USA) supplemented with 10% Fetal Bovine Serum (FBS) and 1% penicillin–streptomycin and incubated at 37 °C in 5% CO2. K562 cells were seeded at a concentration of 1 × 10^5 cells/mL of culture medium. […] Briefly, cells were harvested by centrifugation and resuspended in 5 mL of fresh medium; then an aliquot of 10 μL was taken and mixed with Trypan Blue (93595, Sigma-Aldrich, Milan, Italy) stain (1:1). The mixture was applied on a counting chamber, and cells were counted on a binocular microscope. […] Once resistance was established (after approximately 9 months), K562-R and K562-S were treated with compounds at different concentrations.
Treatments were maintained for 48 h, and then cell viability was assessed: (a) with 0.2% (final concentration) trypan blue dye exclusion analysis which is used to determine the number of viable cells present in a cell suspension and (b) with XTT assay.
• (a) Briefly, the cell number was determined by counting the viable cells in a Burker counting chamber divided into 16 fields of 1 mm^2. […]

[1] = experimental HO-1 IC50 repeated in Table 3, read-out: IC50
[2] = rat spleen microsomal fraction, read-out: HO-1 IC50 (μM) ± SD

BCR-ABL kinase, sequence (P00519 whole entry): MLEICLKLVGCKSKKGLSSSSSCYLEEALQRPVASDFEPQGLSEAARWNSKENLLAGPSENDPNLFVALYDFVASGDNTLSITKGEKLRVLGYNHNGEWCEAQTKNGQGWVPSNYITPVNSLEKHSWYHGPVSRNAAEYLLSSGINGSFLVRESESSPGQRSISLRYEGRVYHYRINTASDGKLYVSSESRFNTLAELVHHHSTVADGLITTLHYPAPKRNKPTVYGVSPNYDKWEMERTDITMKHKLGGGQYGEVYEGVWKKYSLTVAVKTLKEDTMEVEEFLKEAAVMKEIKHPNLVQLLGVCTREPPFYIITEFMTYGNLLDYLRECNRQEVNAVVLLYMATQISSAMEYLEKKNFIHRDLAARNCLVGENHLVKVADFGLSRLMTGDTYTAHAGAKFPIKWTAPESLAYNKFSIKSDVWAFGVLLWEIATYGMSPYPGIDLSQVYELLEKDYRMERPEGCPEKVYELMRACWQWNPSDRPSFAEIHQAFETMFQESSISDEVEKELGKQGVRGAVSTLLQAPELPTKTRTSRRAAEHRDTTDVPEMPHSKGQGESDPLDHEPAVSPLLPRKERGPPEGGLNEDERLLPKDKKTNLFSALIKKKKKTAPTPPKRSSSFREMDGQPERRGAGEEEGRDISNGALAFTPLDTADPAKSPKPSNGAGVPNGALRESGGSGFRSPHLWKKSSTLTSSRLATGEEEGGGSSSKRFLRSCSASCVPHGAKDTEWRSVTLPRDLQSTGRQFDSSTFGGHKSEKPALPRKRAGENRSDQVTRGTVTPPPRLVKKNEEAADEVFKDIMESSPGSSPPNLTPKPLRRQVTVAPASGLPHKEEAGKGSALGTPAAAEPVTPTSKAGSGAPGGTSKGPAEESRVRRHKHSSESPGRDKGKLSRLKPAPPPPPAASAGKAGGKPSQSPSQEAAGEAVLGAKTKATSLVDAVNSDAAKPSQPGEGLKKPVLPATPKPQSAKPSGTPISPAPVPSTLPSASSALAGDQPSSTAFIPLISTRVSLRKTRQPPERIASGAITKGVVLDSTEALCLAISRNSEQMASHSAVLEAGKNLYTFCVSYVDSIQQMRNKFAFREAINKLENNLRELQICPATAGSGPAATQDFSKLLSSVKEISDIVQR

SMILES | IC50 (HO-1; [1]) [µM] | IC50 (HO-1; [2]) [µM] | melting point [°C] | IC50 (BCR-ABL kinase) [µM] | IC50 (HO-1; rat spleen microsomal fraction, read-out: HO-1 IC50) [µM] | K562-S cell viability (K562-S cells)
Cc1ccc(C(=O)Nc2cc(OCCCCn3ccnc3)ccc2Br)cc1Nc1nccc(-c2cccnc2)n1 [Compound 1d, N-(5-(4-(1H-imidazol-1-yl)butoxy)-2-bromophenyl)-4-methyl-3-((4-(pyridin-3-yl)pyrimidin-2-yl)amino)benzamide] | 116 | 116 ± 5.24 | 69.8 to 72 | 16.2 ± 0.208 |  | 
Cc1ccc(C(=O)Nc2ccc(Br)c(OCCCCn3ccnc3)c2)cc1Nc1nccc(-c2cccnc2)n1 [Compound 1f, N-(3-(4-(1H-imidazol-1-yl)butoxy)-4-bromophenyl)-4-methyl-3-((4-(pyridin-3-yl)pyrimidin-2-yl)amino)benzamide] | 100 | 100 ± 3.29 |  | 5.21 ± 0.224 |  | 
Cc1ccc(C(=O)Nc2ccccc2OCCCCn2ccnc2)cc1Nc1nccc(-c2cccnc2)n1 [Compound 1c, N-(2-(4-(1H-imidazol-1-yl)butoxy)phenyl)-4-methyl-3-((4-(pyridin-3-yl)pyrimidin-2-yl)amino)benzamide] | 149 | 149 ± 8.1 |  | 14.6 ± 0.283 |  | 
Cc1ccc(C(=O)Nc2ccc(OCCCCn3ccnc3)cc2)cc1Nc1nccc(-c2cccnc2)n1 [Compound 1a, N-(4-(4-(1H-imidazol-1-yl)butoxy)phenyl)-4-methyl-3-((4-(pyridin-3-yl)pyrimidin-2-yl)amino)benzamide] | 44.8 | 44.8 ± 2.58 | 140 to 142 | 0.109 ± 0.0016 |  | 
Cc1ccc(OCCCCn2ccnc2)c(NC(=O)c2ccc(C)c(Nc3nccc(-c4cccnc4)n3)c2)c1 [Compound 1j, N-(2-(4-(1H-imidazol-1-yl)butoxy)-5-methylphenyl)-4-methyl-3-((4-(pyridin-3-yl)pyrimidin-2-yl)amino)benzamide] | 3060 | 3060 ± 201 |  | 5.45 ± 0.223 | ~3000 | 
Cc1ccc(C(=O)Nc2cccc(OCCCCn3ccnc3)c2)cc1Nc1nccc(-c2cccnc2)n1 [Compound 1b, N-(3-(4-(1H-imidazol-1-yl)butoxy)phenyl)-4-methyl-3-((4-(pyridin-3-yl)pyrimidin-2-yl)amino)benzamide] | 64.6 | 64.6 ± 0.69 | 118 to 120 | 4.19 ± 0.16 |  | 
Cc1ccc(C(=O)Nc2cc(OCCCCn3ccnc3)cc(C(F)(F)F)c2)cc1Nc1nccc(-c2cccnc2)n1 [Compound 1h, N-(3-(4-(1H-imidazol-1-yl)butoxy)-5-(trifluoromethyl)phenyl)-4-methyl-3-((4-(pyridin-3-yl)pyrimidin-2-yl)amino)benzamide] | 65.4 | 65.4 ± 1.39 | 180.3 to 182.5 | 0.77 ± 0.042 |  | significant reduction; also recorded: cytotoxic properties similar to NIL and IM
Cc1ccc(C(=O)Nc2ccc(OCCCCn3ccnc3)c(Br)c2)cc1Nc1nccc(-c2cccnc2)n1 [Compound 1e, N-(4-(4-(1H-imidazol-1-yl)butoxy)-3-bromophenyl)-4-methyl-3-((4-(pyridin-3-yl)pyrimidin-2-yl)amino)benzamide] | 55.1 | 55.1 ± 0.71 |  | 0.037 ± 0.0012 |  | 
Cc1ccc(C(=O)Nc2ccc(Br)cc2OCCCCn2ccnc2)cc1Nc1nccc(-c2cccnc2)n1 [Compound 1i, N-(2-(4-(1H-imidazol-1-yl)butoxy)-4-bromophenyl)-4-methyl-3-((4-(pyridin-3-yl)pyrimidin-2-yl)amino)benzamide] | 83.4 | 83.4 ± 2.3 | 94 to 96 | 13.7 ± 0.139 |  | 
Cc1ccc(C(=O)Nc2cc(Br)cc(OCCCCn3ccnc3)c2)cc1Nc1nccc(-c2cccnc2)n1 [Compound 1g, N-(3-(4-(1H-imidazol-1-yl)butoxy)-5-bromophenyl)-4-methyl-3-((4-(pyridin-3-yl)pyrimidin-2-yl)amino)benzamide] | 51 | 51 ± 0.99 | 162 to 164.4 | 0.077 ± 0.0036 |  | significant reduction; also recorded: cytotoxic properties similar to NIL and IM
